In ChEMBL document CHEMBL1201862, “PubChem BioAssay data set” (2004):
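Following 48 hours of exposure in 96-well plates, responses at five concentrations were used to interpolate endpoints linearly. GI50 is the concentration that inhibits growth by half.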 The source made the active and inactive calls. Rule as the data show it: active = GI50 up to about 1.1 µM and inactive = higher.

Columns and labels:
Experiment in all cases: NCI tumour cell line growth inhibition, 48 h
SW-620 = system: SW-620
HCT-116 = system: HCT-116
OVCAR-8 = system: OVCAR-8
KM12 = system: KM12
OVCAR-4 = system: OVCAR-4
K562 = system: K562
OVCAR-3 = system: OVCAR-3
UACC-62 = system: UACC-62
CCRF-CEM = system: CCRF-CEM
SF-295 = system: SF-295
HOP-62 = system: HOP-62
SR = system: SR
Malme-3M = system: Malme-3M
HL-60 = system: HL-60
IGROV-1 = system: IGROV-1
A498 = system: A498
SK-OV-3 = system: SK-OV-3
NCI-H460 = system: NCI-H460

Row | Compound | GI50 (SW-620) | GI50 (HCT-116) | GI50 (OVCAR-8) | GI50 (KM12) | GI50 (OVCAR-4) | GI50 (K562) | GI50 (OVCAR-3) | GI50 (UACC-62) | GI50 (CCRF-CEM) | GI50 (SF-295) | GI50 (HOP-62) | GI50 (SR) | GI50 (Malme-3M) | GI50 (HL-60) | GI50 (IGROV-1) | GI50 (A498) | GI50 (SK-OV-3) | GI50 (NCI-H460)
1 | CC1=CC(=O)NCCN1C | 24.2 µM (inactive) | > 100 µM (inactive) | > 100 µM (inactive) | > 100 µM (inactive) | > 100 µM (inactive) | 73.5 µM (inactive) | > 100 µM (inactive) | > 100 µM (inactive) | 75.2 µM (inactive) | > 100 µM (inactive) | > 100 µM (inactive) | > 100 µM (inactive) | > 100 µM (inactive) | 45.9 µM (inactive) | > 100 µM (inactive) | > 100 µM (inactive) | > 100 µM (inactive) | > 100 µM (inactive)
2 | c1ccc(NC[Si]23OCCN(CCO2)CCO3)cc1 | > 100 µM (inactive) | > 100 µM (inactive) | > 100 µM (inactive) | > 100 µM (inactive) | – | > 100 µM (inactive) | > 100 µM (inactive) | > 100 µM (inactive) | > 100 µM (inactive) | > 100 µM (inactive) | – | > 100 µM (inactive) | > 100 µM (inactive) | – | > 100 µM (inactive) | > 100 µM (inactive) | > 100 µM (inactive) | > 100 µM (inactive)
3 | CCOc1ccccc1NC(=O)C(=O)CC(=O)C1=C(C)Nc2ccccc2S1 | > 100 µM (inactive) | > 100 µM (inactive) | > 100 µM (inactive) | > 100 µM (inactive) | > 100 µM (inactive) | > 30.5 µM (inactive) | > 100 µM (inactive) | > 100 µM (inactive) | > 100 µM (inactive) | > 100 µM (inactive) | > 100 µM (inactive) | – | > 100 µM (inactive) | > 21.1 µM (inactive) | > 100 µM (inactive) | > 100 µM (inactive) | > 100 µM (inactive) | > 100 µM (inactive)
4 | C=C(Br)N(CC)CC | > 100 µM (inactive) | > 100 µM (inactive) | > 100 µM (inactive) | > 100 µM (inactive) | > 100 µM (inactive) | > 100 µM (inactive) | > 100 µM (inactive) | > 100 µM (inactive) | > 100 µM (inactive) | > 100 µM (inactive) | > 100 µM (inactive) | > 100 µM (inactive) | > 100 µM (inactive) | > 100 µM (inactive) | > 100 µM (inactive) | > 100 µM (inactive) | > 100 µM (inactive) | > 100 µM (inactive)
5 | C/C(CC(=O)Nc1ccccc1[N+](=O)[O-])=N\NC(N)=O | > 100 µM (inactive) | > 100 µM (inactive) | > 100 µM (inactive) | > 100 µM (inactive) | – | > 100 µM (inactive) | > 100 µM (inactive) | > 100 µM (inactive) | > 100 µM (inactive) | > 100 µM (inactive) | > 100 µM (inactive) | – | > 100 µM (inactive) | > 100 µM (inactive) | > 100 µM (inactive) | – | > 100 µM (inactive) | > 100 µM (inactive)
6 | CCOC(=O)c1cc(-c2ccc(-c3cc(C(=O)OCC)c(C#N)c(N)c3C#N)cc2)c(C#N)c(N)c1C#N | > 100 µM (inactive) | > 100 µM (inactive) | > 100 µM (inactive) | > 100 µM (inactive) | > 100 µM (inactive) | > 100 µM (inactive) | > 100 µM (inactive) | > 100 µM (inactive) | > 100 µM (inactive) | > 100 µM (inactive) | > 100 µM (inactive) | > 100 µM (inactive) | > 100 µM (inactive) | > 100 µM (inactive) | > 100 µM (inactive) | – | > 100 µM (inactive) | > 100 µM (inactive)
7 | CC/C=C\C/C=C\C/C=C\CCCCCCCC(=O)OCC(O)CO (centres undefined) | 58.2 µM (inactive) | > 55.6 µM (inactive) | > 67.8 µM (inactive) | > 56.9 µM (inactive) | > 84.3 µM (inactive) | 2.46 µM (inactive) | 40.9 µM (inactive) | > 100 µM (inactive) | > 47.8 µM (inactive) | > 83.2 µM (inactive) | > 100 µM (inactive) | 1 µM (active) | > 100 µM (inactive) | 20.7 µM (inactive) | > 92.3 µM (inactive) | > 100 µM (inactive) | > 100 µM (inactive) | > 69.3 µM (inactive)
8 | CC(N)CC(=O)O (centres undefined) | > 5000 µM (inactive) | > 5000 µM (inactive) | – | > 5000 µM (inactive) | > 5000 µM (inactive) | > 5000 µM (inactive) | > 5000 µM (inactive) | > 5000 µM (inactive) | > 5000 µM (inactive) | > 5000 µM (inactive) | – | > 5000 µM (inactive) | > 5000 µM (inactive) | > 5000 µM (inactive) | > 5000 µM (inactive) | > 5000 µM (inactive) | > 5000 µM (inactive) | > 5000 µM (inactive)
9 | CC(C)(Oc1ccc2c(=O)cc(-c3ccc(Cl)cc3)oc2c1)C(=O)Nc1c(Cl)cccc1Cl | > 100 µM (inactive) | > 100 µM (inactive) | > 100 µM (inactive) | > 100 µM (inactive) | – | 5.98 µM (inactive) | > 100 µM (inactive) | > 100 µM (inactive) | > 100 µM (inactive) | > 100 µM (inactive) | > 100 µM (inactive) | 79.3 µM (inactive) | > 100 µM (inactive) | > 100 µM (inactive) | > 100 µM (inactive) | > 100 µM (inactive) | > 100 µM (inactive) | > 100 µM (inactive)
10 | CC(C)OC(=O)C1=C(O)c2ccccc2S(=O)(=O)N1 | > 100 µM (inactive) | > 100 µM (inactive) | > 100 µM (inactive) | > 100 µM (inactive) | > 100 µM (inactive) | > 100 µM (inactive) | > 100 µM (inactive) | > 100 µM (inactive) | > 100 µM (inactive) | > 100 µM (inactive) | > 100 µM (inactive) | – | > 100 µM (inactive) | – | > 100 µM (inactive) | > 100 µM (inactive) | > 100 µM (inactive) | > 100 µM (inactive)
11 | CCC12CCCN(Cc3ccccc3)C1c1c(n(C)c3ccccc13)CC2 (centres undefined) | 178 µM (inactive) | 141 µM (inactive) | > 253 µM (inactive) | 86.1 µM (inactive) | – | 163 µM (inactive) | 60.8 µM (inactive) | 230 µM (inactive) | 168 µM (inactive) | 117 µM (inactive) | > 253 µM (inactive) | 108 µM (inactive) | > 253 µM (inactive) | 106 µM (inactive) | 159 µM (inactive) | – | > 253 µM (inactive) | > 253 µM (inactive)
12 | COc1cc2cnc3c4cc(OCc5ccccc5)ccc4ccc3c2cc1OC | 54.3 µM (inactive) | 45.8 µM (inactive) | 18.2 µM (inactive) | 29.8 µM (inactive) | 6.92 µM (inactive) | 10.4 µM (inactive) | 40.6 µM (inactive) | 39.5 µM (inactive) | 2.81 µM (inactive) | 15.6 µM (inactive) | 18.9 µM (inactive) | 4.5 µM (inactive) | 36.3 µM (inactive) | 1.66 µM (inactive) | 28.1 µM (inactive) | – | 12.7 µM (inactive) | 19 µM (inactive)
13 | CO[C@H](C(=O)O[C@H]1C(=O)N2CCC3CCC1C32C)c1ccccc1 (some centres undefined) | > 100 µM (inactive) | > 100 µM (inactive) | > 100 µM (inactive) | > 100 µM (inactive) | > 100 µM (inactive) | > 100 µM (inactive) | > 100 µM (inactive) | > 100 µM (inactive) | > 100 µM (inactive) | > 100 µM (inactive) | > 100 µM (inactive) | > 100 µM (inactive) | > 100 µM (inactive) | > 100 µM (inactive) | > 100 µM (inactive) | – | > 100 µM (inactive) | > 100 µM (inactive)
14 | CCOC(=O)c1c2ccc(/C=C/c3ccccn3)ccc-2c(C(=O)OCC)c1N | > 100 µM (inactive) | – | – | > 100 µM (inactive) | 37.6 µM (inactive) | > 100 µM (inactive) | > 100 µM (inactive) | > 100 µM (inactive) | > 100 µM (inactive) | > 100 µM (inactive) | – | – | > 100 µM (inactive) | 89.1 µM (inactive) | > 100 µM (inactive) | 24.8 µM (inactive) | > 100 µM (inactive) | 89.1 µM (inactive)
15 | COc1ccc(C(=O)O)c(Cc2cccc3ccccc23)c1 | > 100 µM (inactive) | > 100 µM (inactive) | > 100 µM (inactive) | > 100 µM (inactive) | > 100 µM (inactive) | 81.8 µM (inactive) | 64.3 µM (inactive) | 85.9 µM (inactive) | > 100 µM (inactive) | > 100 µM (inactive) | > 100 µM (inactive) | > 100 µM (inactive) | > 100 µM (inactive) | > 100 µM (inactive) | > 100 µM (inactive) | – | > 100 µM (inactive) | > 100 µM (inactive)
16 | CC1/C(=N\O)CC(c2ccccc2)N(C)C1c1ccccc1 (centres undefined) | > 100 µM (inactive) | > 100 µM (inactive) | > 100 µM (inactive) | > 100 µM (inactive) | > 100 µM (inactive) | > 100 µM (inactive) | > 100 µM (inactive) | > 100 µM (inactive) | > 100 µM (inactive) | > 100 µM (inactive) | > 100 µM (inactive) | – | 80.9 µM (inactive) | > 100 µM (inactive) | > 100 µM (inactive) | > 100 µM (inactive) | > 100 µM (inactive) | > 100 µM (inactive)
17 | O=C(NC1C(=O)NNC1c1cccc([N+](=O)[O-])c1)c1ccccc1 (centres undefined) | > 100 µM (inactive) | > 100 µM (inactive) | > 100 µM (inactive) | > 100 µM (inactive) | > 100 µM (inactive) | – | > 100 µM (inactive) | > 100 µM (inactive) | > 100 µM (inactive) | > 100 µM (inactive) | > 100 µM (inactive) | – | > 100 µM (inactive) | 90.8 µM (inactive) | > 100 µM (inactive) | – | – | > 100 µM (inactive)
